According to patent US12522612B2, “PDE4 inhibitors, pharmaceutical compositions, and therapeutic applications” (BioTheryX, Inc., priority 2019, dated 2026):

System: TNF-α
Assay: Cell-based TNF-α inhibition assay in LPS-induced PBMCs (Meso Scale)
Conditions: PBMC, PBMCs pretreated 1 h, LPS 100 ng/mL 18-24 h, relative to stimulated DMSO control; for inhibition at 0.1 µM: compound concentration 0.1 μM; for inhibition at 1 µM: compound concentration 1 μM
Procedure: Frozen primary blood mononuclear cells (PBMCs) were quick thawed, washed once with RPMI 1640 media supplemented with 10% fetal bovine serum, 1% penicillin, and 1% streptomycin, and plated in a 96 well plate at 200,000 cells per well. The cells were pretreated with DMSO only as a control or a compound for 1 h, and then induced with LPS (lipopolysaccharide) (100 ng/mL) for 18-24 h. The supernatant was analyzed for TNF-α using the Meso Scale assay. Compound activity was determined as a percentage of the stimulated DMSO control. The results are summarized in Table 1, where A represents a percent inhibition value ≥60%; B represents a percent inhibition value <60% and ≥40%; C represents a percent inhibition value <40% and >20%; and D represents a single percent inhibition value <20%.

| SMILES | inhibition at 0.1 µM [%] | inhibition at 1 µM [%] |
| --- | --- | --- |
| CCOc1cc([C@@H](CS(=O)(=O)C2CC2)N2C(=O)c3csc(NC(=O)COC)c3C2=O)ccc1OC [Compound A11, (S)—N-(5-(2-(cyclopropylsulfonyl)-1-(3-ethoxy-4-methoxyphenyl)ethyl)-4,6-dioxo-5,6-dihydro-4H-thieno[3,4-c]pyrrol-1-yl)-2-methoxyacetamide] | 20 to 40 | ≥ 60 |
| CCOc1cc([C@@H](CS(C)(=O)=O)N2C(=O)c3cc(CCCCC(=O)N4CCC(C#Cc5cccc6c5CN(C5CCC(=O)NC5=O)C6=O)CC4)cc(NC(C)=O)c3C2=O)ccc1OC (stereo partly drawn) [Compound B16, N-(6-(5-(4-((2-(2,6-dioxopiperidin-3-yl)-1-oxoisoindolin-4-yl)ethynyl)piperidin-1-yl)-5-oxopentyl)-2-((S)-1-(3-ethoxy-4-methoxyphenyl)-2-(methylsulfonyl)ethyl)-1,3-dioxoisoindolin-4-yl)acetamide] | ≥ 60 | ≥ 60 |
| CCOc1cc([C@@H](CS(C)(=O)=O)N2C(=O)c3cccc(NC(=O)CCOCCOCCOCCNc4cccc5c4C(=O)N(C4CCC(=O)NC4=O)C5=O)c3C2=O)ccc1OC (stereo partly drawn) [Compound B43, 3-(2-(2-(2-((2-(2,6-Dioxopiperidin-3-yl)-1,3-dioxoisoindolin-4-yl)amino)ethoxy)-ethoxy)ethoxy)-N-(2-((S)-1-(3-ethoxy-4-methoxyphenyl)-2-(methylsulfonyl)ethyl)-1,3-dioxoisoindolin-4-yl)propanamide] | ≥ 60 | ≥ 60 |
| CCOc1cc([C@@H](CS(C)(=O)=O)N2C(=O)c3cccc(NC(=O)CCCCCCNCc4ccc(OCc5scc6c5CN([C@H]5CCC(=O)NC5=O)C6=O)cc4)c3C2=O)ccc1OC [Compound B44, 7-((4-((5-((S)-2,6-Dioxopiperidin-3-yl)-4-oxo-5,6-dihydro-4H-thieno[3,4-c]pyrrol-1-yl)methoxy)benzyl)amino)-N-(2-((S)-1-(3-ethoxy-4-methoxyphenyl)-2-(methylsulfonyl)ethyl)-1,3-dioxoisoindolin-4-yl)heptanamide] |  | ≥ 60 |
| O=C1CCC(N2Cc3c(cc(F)cc3C3CCN(CCCCCCCCCOc4cc(C(=O)Nc5c(Cl)cncc5Cl)ccc4OC(F)F)CC3)C2=O)C(=O)N1 (centres unmarked) [Compound B45, N-(3,5-Dichloropyridin-4-yl)-4-(difluoromethoxy)-3-((9-(4-(2-(2,6-dioxopiperidin-3-yl)-6-fluoro-1-oxoisoindolin-4-yl)piperidin-1-yl)nonyl)oxy)benzamide] |  | ≥ 60 |
| O=C1CCC(N2Cc3c(cc(F)cc3C3CCN(CCCCCOc4cc(C(=O)Nc5c(Cl)cncc5Cl)ccc4OC(F)F)CC3)C2=O)C(=O)N1 (centres unmarked) [Compound B46, N-(3,5-Dichloropyridin-4-yl)-4-(difluoromethoxy)-3-((5-(4-(2-(2,6-dioxopiperidin-3-yl)-6-fluoro-1-oxoisoindolin-4-yl)piperidin-1-yl)pentyl)oxy)benzamide] |  | ≥ 60 |
| CCOc1cc([C@@H](CS(C)(=O)=O)N2C(=O)c3cc(C#CCCCCCN4CCC(c5cc(F)cc6c5CN(C5CCC(=O)NC5=O)C6=O)CC4)cc(NC(C)=O)c3C2=O)ccc1OC (stereo partly drawn) [Compound B47, N-(6-(7-(4-(2-(2,6-dioxopiperidin-3-yl)-6-fluoro-1-oxoisoindolin-4-yl)piperidin-1-yl)hept-1-yn-1-yl)-2-((S)-1-(3-ethoxy-4-methoxyphenyl)-2-(methylsulfonyl)ethyl)-1,3-dioxoisoindolin-4-yl)acetamide] |  | ≥ 60 |
| CCOc1cc([C@@H](CS(C)(=O)=O)N2C(=O)c3cccc(NC(=O)COCCOCCOCCOCCNc4cccc5c4C(=O)N(C4CCC(=O)NC4=O)C5=O)c3C2=O)ccc1OC (stereo partly drawn) [Compound B48, 14-((2-(2,6-Dioxopiperidin-3-yl)-1,3-dioxoisoindolin-4-yl)amino)-N-(2-((S)-1-(3-ethoxy-4-methoxyphenyl)-2-(methylsulfonyl)ethyl)-1,3-dioxoisoindolin-4-yl)-3,6,9,12-tetraoxatetradecan-1-amide] |  | ≥ 60 |
